Source: patent US10688093B2, “Methods, compositions, and uses of novel Fyn kinase inhibitors” (priority 2015, dated 2020)

target: full-length recombinant human FYN A (Homo sapiens (Human), UniProt P06241); test: ADP-Glo Kinase Assay of FYN kinase inhibition; assay type: biochemical; conditions: primary screen, initial compounds
Procedure, shortened: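 GST-tagged full-length FYN A (baculovirus, Sf9) at 3 pg preincubated 30 min RT with compound (10-point 3-fold series from 10 μM) in Tris pH 7.5/MgCl2 buffer. 12-mer tyrosine peptide plus 12.5 pmol ATP added, 90 min RT; ADP measured by ADP-Glo luminescence, IC50 from dose-response.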

Sequence of full-length recombinant human FYN A (P06241 whole entry): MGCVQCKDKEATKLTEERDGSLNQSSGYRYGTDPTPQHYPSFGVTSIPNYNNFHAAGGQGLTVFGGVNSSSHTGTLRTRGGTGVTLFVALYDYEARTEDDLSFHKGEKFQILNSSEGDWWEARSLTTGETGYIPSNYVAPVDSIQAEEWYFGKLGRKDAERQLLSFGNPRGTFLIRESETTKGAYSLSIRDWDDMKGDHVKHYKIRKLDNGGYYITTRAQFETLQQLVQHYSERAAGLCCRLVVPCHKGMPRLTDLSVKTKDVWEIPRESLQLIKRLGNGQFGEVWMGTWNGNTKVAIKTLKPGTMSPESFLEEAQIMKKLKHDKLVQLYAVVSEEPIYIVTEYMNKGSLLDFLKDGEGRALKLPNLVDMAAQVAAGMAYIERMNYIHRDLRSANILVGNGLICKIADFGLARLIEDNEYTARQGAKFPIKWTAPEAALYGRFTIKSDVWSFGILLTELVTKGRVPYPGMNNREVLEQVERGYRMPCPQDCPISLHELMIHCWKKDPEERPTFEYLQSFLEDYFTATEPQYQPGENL

**Q.** Which IC50 does the source give for `CNc1ccc2ncc(-c3cnn(C)c3)n2n1` [Compound 437_7468, N-methyl-3-(1-methylpyrazol-4-yl)imidazo[1,2-b]pyridazin-6-amine] here?
**A.** Its IC50 is 5630 nM.

**Q.** With `CN(C)CCNC(=O)c1cccc(-c2ccc3ncc(-c4cccs4)n3n2)c1` [Compound 438, N-(2-dimethyl-aminoethyl)-3-[3-(2-thienyl)imidazo[1,2-b]pyridazin-6-yl]benzamide] as the molecule, how does the IC50 read?
**A.** Its IC50 is 1160 nM.

**Q.** With `c1ccc(-c2ccc3ncc(-c4ccc5c(c4)OCO5)n3n2)cc1` [Compound 439, 3-(1,3-benzodioxol-5-yl)-6-phenyl-imidazo[1,2-b]pyridazine] as the molecule, how does the IC50 read?
**A.** Its IC50 is 3090 nM.

**Q.** How did the IC50 turn out when `Oc1cccc(-c2ccc3ncc(-c4cccnc4)n3n2)c1` [Compound 440, 3-[3-(3-pyridyl)imidazo [1,2-b]pyridazin-6-yl]phenol] was run?
**A.** The IC50 was 1810 nM.

**Q.** Which IC50 does the source give for `COc1ccc(-c2cnc3ccc(-c4cccs4)nn23)cc1OC` [Compound 441, 3-(3,4-dimethoxy-phenyl)-6-(2-thienyl)imidazo [1,2-b]pyridazine] here?
**A.** The IC50 was 211 nM.

**Q.** `Oc1cccc(-c2ccc3ncc(-c4cccc(O)c4)n3n2)c1` [Compound 442, 3-[3-(3-hydroxyphenyl)imidazo[1,2-b]pyridazin-6-yl]phenol] was tested. Which IC50 did it give?
**A.** Its IC50 is 987 nM.

**Q.** For `CC(=O)Nc1cccc(-c2ccc3ncc(-c4ccc(CO)cc4)n3n2)c1` [Compound 443, N-[3-[3-[4-(hydroxymethyl)phenyl]imidazo [1,2-b]pyridazin-6-yl]phenyl] acetamide], which IC50 is on record?
**A.** The IC50 was 2240 nM.

**Q.** For `CC(=O)c1cccc(-c2cnc3ccc(-c4ccc(F)cc4)nn23)c1` [Compound 444, 1-[3-[6-(4-fluorophenyl)imidazo[1,2-b]pyridazin-3-yl]phenyl] ethanone], which IC50 is on record?
**A.** The IC50 was 4810 nM.

**Q.** With `CNC(=O)c1cccc(-c2ccc3ncc(-c4cccc(NC(C)=O)c4)n3n2)c1` [Compound 445, 3-[3-(3-acetamido-phenyl)imidazo [1,2-b]pyridazin-6-yl]-N-methyl-benzamide] as the molecule, how does the IC50 read?
**A.** Its IC50 is 1330 nM.

**Q.** Which IC50 does the source give for `CNc1cncc(-c2ccc3[nH]ccc3c2)n1` [Compound 445_0204, 6-(1H-indol-5-yl)-N-methyl-pyrazin-2-amine] here?
**A.** Its IC50 is 14900 nM.

**Q.** How did the IC50 turn out when `OCc1cccc(-c2ccc3ncc(-c4ccccc4)n3n2)c1` [Compound 446, [3-(3-phenylimidazo [1,2-b]pyridazin-6-yl)phenyl] methanol] was run?
**A.** The IC50 was 1930 nM.

**Q.** How did the IC50 turn out when `Cn1cc(-c2ccc3ncc(-c4ccncc4)n3n2)cn1` [Compound 447, 6-(1-methylpyrazol-4-yl)-3-(4-pyridyl)imidazo [1,2-b]pyridazine] was run?
**A.** The IC50 was 30000 nM.

**Q.** How did the IC50 turn out when `CN(C)CCNC(=O)c1cccc(-c2ccc3ncc(-c4cccc(OC(F)(F)F)c4)n3n2)c1` [Compound 448, N-(2-dimethylamino-ethyl)-3-[3-[3-(trifluoromethoxy)phenyl]imidazo [1,2-b]pyridazin-6-yl]benzamide] was run?
**A.** Its IC50 is 3930 nM.

**Q.** For `OCc1ccc(-c2ccc3ncc(-c4ccc(CO)cc4)n3n2)cc1` [Compound 449, [4-[3-[4-(hydroxymethyl)phenyl]imidazo [1,2-b]pyridazin-6-yl]phenyl] methanol], which IC50 is on record?
**A.** Its IC50 is 1040 nM.

**Q.** With `COc1cc(-c2cnc3ccc(-c4ccc5c(c4)OCO5)nn23)ccc1O` [Compound 450, 4-[6-(1,3-benzodioxol-5-yl)imidazo[1,2-b]pyridazin-3-yl]-2-methoxy-phenol] as the molecule, how does the IC50 read?
**A.** Its IC50 is 200 nM.

**Q.** `CC(=O)c1cccc(-c2cnc3ccc(-c4cccs4)nn23)c1` [Compound 451, 1-[3-[6-(2-thienyl)imidazo [1,2-b]pyridazin-3-yl]phenyl] ethanone] was tested. Which IC50 did it give?
**A.** The IC50 was 416 nM.

**Q.** Which IC50 does the source give for `COc1cncc(-c2ccc3ncc(-c4cccs4)n3n2)c1` [Compound 452, 6-(5-methoxy-3-pyridyl)-3-(2-thienyl)imidazo [1,2-b]pyridazine] here?
**A.** Its IC50 is 2860 nM.

**Q.** How did the IC50 turn out when `c1csc(-c2ccc3ncc(-c4cccs4)n3n2)c1` [Compound 453, 3,6-bis(2-thienyl)imidazo [1,2-b]pyridazine] was run?
**A.** Its IC50 is 4890 nM.

**Q.** With `CN(C)CCNC(=O)c1cccc(-c2cnc3ccc(-c4cnn(C)c4)nn23)c1` [Compound 454, N-(2-dimethyl-aminoethyl)-3-[6-(1-methyl-pyrazol-4-yl)imidazo[1,2-b]pyridazin-3-yl]benzamide] as the molecule, how does the IC50 read?
**A.** Its IC50 is 1760 nM.

**Q.** With `CN(C)CCNC(=O)c1cccc(-c2cnc3ccc(-c4ccc5c(c4)OCO5)nn23)c1` [Compound 455, 3-[6-(1,3-benzodioxol-5-yl)imidazo[1,2-b]pyridazin-3-yl]-N-(2-dimethylamino-ethyl)benzamide] as the molecule, how does the IC50 read?
**A.** Its IC50 is 2020 nM.

**Q.** `CN(C)CCNC(=O)c1cccc(-c2cnc3ccc(-c4cccc(C(N)=O)c4)nn23)c1` [Compound 456, 3-[3-[3-(2-dimethylamino-ethylcarbamoyl)phenyl]imidazo [1,2-b]pyridazin-6-yl]benzamide] was tested. Which IC50 did it give?
**A.** The IC50 was 4150 nM.

**Q.** How did the IC50 turn out when `O=C(NCCO)c1cccc(-c2ccc3ncc(-c4cccc(O)c4)n3n2)c1` [Compound 457, N-(2-hydroxyethyl)-3-[3-(3-hydroxyphenyl)imidazo[1,2-b]pyridazin-6-yl]benzamide] was run?
**A.** Its IC50 is 352 nM.

**Q.** With `COc1cc(-c2cnc3ccc(-c4cc(OC)c(OC)c(OC)c4)nn23)ccc1O` [Compound 458, 2-methoxy-4-[6-(3,4,5-trimethoxyphenyl)imidazo[1,2-b]pyridazin-3-yl]phenol] as the molecule, how does the IC50 read?
**A.** Its IC50 is 1810 nM.

**Q.** With `OCc1cccc(-c2ccc3ncc(-c4ccoc4)n3n2)c1` [Compound 459, [3-[3-(3-furyl)imidazo[1,2-b]pyridazin-6-yl]phenyl] methanol] as the molecule, how does the IC50 read?
**A.** Its IC50 is 7330 nM.

**Q.** For `NC(=O)c1ccc(-c2cnc3ccc(Cc4ccccc4)nn23)cc1` [Compound 460, 4-(6-benzylimidazo [1,2-b]pyridazin-3-yl)benzamide], which IC50 is on record?
**A.** The IC50 was 711 nM.

**Q.** With `CC(=O)Nc1ccc(-c2ccc3ncc(-c4cccc(C(=O)NCCN(C)C)c4)n3n2)cc1` [Compound 461, 3-[6-(4-acetamidophenyl)imidazo[1,2-b]pyridazin-3-yl]-N-(2-dimethylamino-ethyl)benzamide] as the molecule, how does the IC50 read?
**A.** Its IC50 is 983 nM.

**Q.** With `COc1cc(-c2cnc3ccc(-c4cccc(OC(F)(F)F)c4)nn23)ccc1O` [Compound 462, 2-methoxy-4-[6-[3-(trifluoro-methoxy)phenyl]imidazo[1,2-b]pyridazin-3-yl]phenol] as the molecule, how does the IC50 read?
**A.** Its IC50 is 835 nM.

**Q.** `CN(C)CCNC(=O)c1cccc(-c2cnc3ccc(-c4cccc(CO)c4)nn23)c1` [Compound 463, N-(2-dimethylamino-ethyl)-3-[6-[3-(hydroxymethyl)phenyl]imidazo [1,2-b]pyridazin-3-yl]benzamide] was tested. Which IC50 did it give?
**A.** The IC50 was 816 nM.

**Q.** `NC(=O)c1ccc(-c2cnc3ccc(Cc4ccc(F)c(F)c4)nn23)cc1` [Compound 464, 4-[6-[(3,4-difluorophenyl)methyl]imidazo [1,2-b]pyridazin-3-yl]benzamide] was tested. Which IC50 did it give?
**A.** Its IC50 is 3070 nM.

**Q.** With `CC(=O)Nc1cccc(-c2ccc3ncc(-c4cccc(C(=O)NCCN(C)C)c4)n3n2)c1` [Compound 465, 3-[6-(3-acetamidophenyl)imidazo[1,2-b]pyridazin-3-yl]-N-(2-dimethylamino-ethyl)benzamide] as the molecule, how does the IC50 read?
**A.** The IC50 was 3170 nM.

**Q.** For `COc1cc(-c2cnc3ccc(-c4cccc(C(F)(F)F)c4)nn23)ccc1O` [Compound 466, 2-methoxy-4-[6-[3-(trifluoro-methyl)phenyl]imidazo[1,2-b]pyridazin-3-yl]phenol], which IC50 is on record?
**A.** The IC50 was 1080 nM.

**Q.** With `COc1cncc(-c2cnc3ccc(Cc4ccccc4)nn23)c1` [Compound 467, 6-benzyl-3-(5-methoxy-3-pyridyl)imidazo [1,2-b]pyridazine] as the molecule, how does the IC50 read?
**A.** The IC50 was 2670 nM.

**Q.** With `Cc1cccc(Cc2ccc3ncc(-c4ccc(C(N)=O)cc4)n3n2)c1` [Compound 468, 4-[6-(m-tolylmethyl)imidazo[1,2-b]pyridazin-3-yl]benzamide] as the molecule, how does the IC50 read?
**A.** The IC50 was 3100 nM.

**Q.** `COc1ccccc1-c1ccc2ncc(-c3cccc(C(=O)NCCN(C)C)c3)n2n1` [Compound 469, N-(2-dimethylamino-ethyl)-3-[6-(2-methoxyphenyl)imidazo[1,2-b]pyridazin-3-yl]benzamide] was tested. Which IC50 did it give?
**A.** Its IC50 is 2140 nM.

**Q.** Which IC50 does the source give for `CN(C)CCNC(=O)c1cccc(-c2cnc3ccc(-c4cccc(Oc5ccccc5)c4)nn23)c1` [Compound 470, N-(2-dimethylamino-ethyl)-3-[6-(3-phenoxyphenyl)imidazo[1,2-b]pyridazin-3-yl]benzamide] here?
**A.** The IC50 was 19200 nM.

**Q.** Which IC50 does the source give for `Oc1cccc(-c2cnc3ccc(C4CC4)nn23)c1` [Compound 471, 3-(6-cyclo-propylimidazo[1,2-b]pyridazin-3-yl)phenol] here?
**A.** Its IC50 is 1890 nM.

**Q.** How did the IC50 turn out when `COc1cc(-c2cnc3ccc(-c4cccc(F)c4)nn23)ccc1O` [Compound 472, 4-[6-(3-fluoro-phenyl)imidazo [1,2-b]pyridazin-3-yl]-2-methoxy-phenol] was run?
**A.** The IC50 was 281 nM.

**Q.** Which IC50 does the source give for `COc1cncc(-c2cnc3ccc(Cc4ccc(F)cc4)nn23)c1` [Compound 473, 6-[(4-fluoro-phenyl)methyl]-3-(5-methoxy-3-pyridyl)imidazo [1,2-b]pyridazine] here?
**A.** Its IC50 is 4420 nM.

**Q.** How did the IC50 turn out when `O=C(NCCO)c1cccc(-c2ccc3ncc(-c4ccc(CO)cc4)n3n2)c1` [Compound 475, N-(2-hydroxyethyl)-3-[3-[4-(hydroxymethyl)phenyl]imidazo [1,2-b]pyridazin-6-yl]benzamide] was run?
**A.** Its IC50 is 2140 nM.

**Q.** `COc1cc(-c2cnc3ccc(-c4cccc(C(N)=O)c4)nn23)ccc1O` [Compound 476, 3-[3-(4-hydroxy-3-methoxy-phenyl)imidazo [1,2-b]pyridazin-6-yl]benzamide] was tested. Which IC50 did it give?
**A.** The IC50 was 223 nM.

**Q.** With `Cc1cccc(Cc2ccc3ncc(-c4cnn(C)c4)n3n2)c1` [Compound 477, 3-(1-methylpyrazol-4-yl)-6-(m-tolylmethyl) imidazo[1,2-b]pyridazine] as the molecule, how does the IC50 read?
**A.** The IC50 was 1800 nM.

**Q.** `CC(=O)c1cccc(-c2cnc3ccc(-c4cccc(C(=O)NCCO)c4)nn23)c1` [Compound 478, 3-[3-(3-acetylphenyl)imidazo[1,2-b]pyridazin-6-yl]-N-(2-hydroxyethyl) benzamide] was tested. Which IC50 did it give?
**A.** The IC50 was 629 nM.

**Q.** `OCc1ccc(-c2cnc3ccc(Cc4ccccc4)nn23)cc1` [Compound 479, [4-(6-benzylimidazo [1,2-b]pyridazin-3-yl)phenyl] methanol] was tested. Which IC50 did it give?
**A.** The IC50 was 3230 nM.

**Q.** How did the IC50 turn out when `COc1cc(-c2cnc3ccc(Cc4ccc(F)cc4)nn23)ccc1O` [Compound 480, 4-[6-[(4-fluorophenyl)methyl]imidazo [1,2-b]pyridazin-3-yl]-2-methoxy-phenol] was run?
**A.** Its IC50 is 2090 nM.
